The term AC50 denotes the concentration giving half of the maximal activity seen.

Records with an inconclusive call do not appear. Activity calls are given as the source filed them.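 The calls were made as follows: active = compounds lowering cell ATP signal, with AC50 no higher than twice their own top valid dose; inconclusive = flat curve with 30 to 70% signal loss, or poor fit; inactive = the rest, including signal rises.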 Bounds are passed on as bounds.

This passage reports activity change, negative = cytotoxicity and AC50 results from PubChem BioAssay AID1053141 (Broad Institute, 2014).

System in one assay: not listed separately
Kind of assay: HEK293T cell cytotoxicity, dose response, cytotoxicity control, ATP luminescence, dry powder, set 19 (AID 1053141). Particulars: HEK293T viability, CellTiter-Glo ATP luminescence, 72 h; at 26 µM (top of the series). (In general: In ATP-based viability assays light output follows the ATP content of the culture.)
`CCCNC(=O)Nc1ccc2c(c1)OC[C@H](C)N(Cc1ccccc1)C[C@H](C)[C@@H](OC)CN(C)C2=O`: the activity change, negative = cytotoxicity was 49.2% (inactive). On the same count and under the same terms, with `CO[C@H]1CN(C)C(=O)c2ccc(NC(=O)NC(C)C)cc2OC[C@H](C)N(Cc2ccccc2)C[C@@H]1C` the figure was 94.8% (inactive). On to `CCCC(=O)Nc1ccc2c(c1)OC[C@H](C)N(Cc1ccc(-c3ccccn3)cc1)C[C@H](C)[C@@H](OC)CN(C)C2=O`, for which the activity change, negative = cytotoxicity was 4.89% (inactive). On the same count and under the same terms, with `CCCNC(=O)Nc1ccc2c(c1)OC[C@H](C)N(Cc1ccc(-c3ccccn3)cc1)C[C@H](C)[C@@H](OC)CN(C)C2=O` the figure was 12.5% (inactive); with `CO[C@H]1CN(C)C(=O)c2ccc(NC(=O)NC(C)C)cc2OC[C@H](C)N(Cc2ccc(-c3ccccn3)cc2)C[C@@H]1C`, -6.54% (inactive).

The same assay, now with this note: HEK293T viability, CellTiter-Glo ATP luminescence, 72 h; at 50 µM (top of the series).
`CO[C@H]1CN(C)C(=O)c2cc(NC(=O)NC(C)C)ccc2OC[C@H](C)N(Cc2cccnc2)C[C@@H]1C`: the activity change, negative = cytotoxicity is 30.5% (inactive). Still for that read-out and setting: with `CO[C@H]1CN(C)C(=O)c2cc(NC(=O)NC(C)C)ccc2OC[C@H](C)N(Cc2ccccn2)C[C@@H]1C` the figure was 43.7% (inactive); with `CO[C@H]1CN(C)C(=O)c2cc(NC(=O)NC(C)C)ccc2OC[C@H](C)N(C(=O)c2ccc(-c3ccccn3)cc2)C[C@@H]1C`, -14% (inactive); with `CO[C@H]1CN(C)C(=O)c2cc(NC(=O)NC(C)C)ccc2OC[C@H](C)N(C(=O)c2ccccc2)C[C@@H]1C`, 13.8% (inactive). As to `CO[C@H]1CN(C)C(=O)c2cc(NC(=O)NC(C)C)ccc2OC[C@H](C)N(Cc2ccncc2)C[C@@H]1C`, the activity change, negative = cytotoxicity was -29.6% (inactive). Consider `CO[C@H]1CN(C)C(=O)c2cc(NC(=O)NC(C)C)ccc2OC[C@H](C)N(Cc2cncnc2)C[C@@H]1C`, for which the activity change, negative = cytotoxicity was 24.6% (inactive).

In the next assay the test system is HEK293T viability, CellTiter-Glo ATP luminescence, 72 h. The assay is described as above.
Settings: not given
In the case of `CCCC(=O)Nc1ccc2c(c1)OC[C@H](C)N(Cc1ccccc1)C[C@H](C)[C@@H](OC)CN(C)C2=O`, the AC50 is > 52 µM (inactive). The same measure, in the same setting: with `CO[C@H]1CN(C)C(=O)c2cc(NC(=O)NC(C)C)ccc2OC[C@H](C)N(Cc2cccc(F)c2)C[C@@H]1C` the figure was 35.8 µM; with `CO[C@H]1CN(C)C(=O)c2cc(NC(=O)NC(C)C)ccc2OC[C@H](C)N(Cc2ccc(-c3cccnc3)cc2)C[C@@H]1C`, 37.7 µM. For the compound `CO[C@H]1CN(C)C(=O)c2cc(NC(=O)NC(C)C)ccc2OC[C@H](C)NC[C@@H]1C`, the AC50 was > 100 µM (inactive). Regarding `CO[C@H]1CN(C)C(=O)c2cc(Nc3c(NC4CCCC4)c(=O)c3=O)ccc2OC[C@H](C)N(Cc2ccc(-c3ccccn3)cc2)C[C@@H]1C`, the AC50 is 13.8 µM. In the case of `CO[C@H]1CN(C)C(=O)c2cc(NC(=O)NC(C)C)ccc2OC[C@H](C)N(Cc2ccccc2F)C[C@@H]1C`, the AC50 was 27.4 µM. Same read-out and setting: with `CO[C@H]1CN(C)C(=O)c2cc(NC(=O)NC(C)C)ccc2OC[C@H](C)N(C(=O)Nc2ccc(-c3ccccn3)cc2)C[C@@H]1C` the figure was > 100 µM (inactive); with `CCC(CC)Nc1c(Nc2ccc3c(c2)C(=O)N(C)C[C@H](OC)[C@@H](C)CN(Cc2ccc(-c4ccccn4)cc2)[C@@H](C)CO3)c(=O)c1=O`, 39.8 µM; with `CO[C@H]1CN(C)C(=O)c2cc(NC(=O)NC(C)C)ccc2OC[C@H](C)N(Cc2ccc(-c3ccccn3)cc2)C[C@@H]1C`, 27 µM. Turning to `CO[C@H]1CN(C)C(=O)c2cc(Nc3c(NC4CC4)c(=O)c3=O)ccc2OC[C@H](C)N(Cc2ccc(-c3ccccn3)cc2)C[C@@H]1C`, the AC50 was 15 µM. Take `CO[C@H]1CN(C)C(=O)c2cc(NC(=O)NC(C)C)ccc2OC[C@H](C)N(Cc2ccc(F)cc2)C[C@@H]1C`: the half-maximal activity concentration (AC50) was 29.7 µM. Still for that read-out and setting: with `CO[C@H]1CN(C)C(=O)c2cc(NC(=O)C(C)C)ccc2OC[C@H](C)N(Cc2ccc(-c3ccccn3)cc2)C[C@@H]1C` the figure was 52.3 µM; with `CO[C@H]1CN(C)C(=O)c2cc(NC(=O)NC(C)C)ccc2OC[C@H](C)N(Cc2ccccc2)C[C@@H]1C`, 44.5 µM. Still for that read-out and setting: with `CO[C@H]1CN(C)C(=O)c2cc(Nc3ncccn3)ccc2OC[C@H](C)N(Cc2ccc(-c3ccccn3)cc2)C[C@@H]1C` the figure was 24.5 µM; with `CO[C@H]1CN(C)C(=O)c2cc(NC(=O)NC(C)C)ccc2OC[C@H](C)N(Cc2ccc(-c3ccncc3)cc2)C[C@@H]1C`, 30.7 µM.
